According to ChEMBL document CHEMBL1201862, “PubChem BioAssay data set” (2004):
Calls of active or inactive are those of the source.

Legend:
Aminopeptidase N = molecular target: T1, Aminopeptidase N (Plasmodium falciparum FcB1/Columbia, UniProt O96935); assay: malaria alanyl aminopeptidase activity blockers – biochemical, fluorogenic H-Leu-NHMec substrate, 1536-well (AID 1445); set-up: species or system Plasmodium falciparum 3D7, 3D7
T1 sequence (O96935 whole entry): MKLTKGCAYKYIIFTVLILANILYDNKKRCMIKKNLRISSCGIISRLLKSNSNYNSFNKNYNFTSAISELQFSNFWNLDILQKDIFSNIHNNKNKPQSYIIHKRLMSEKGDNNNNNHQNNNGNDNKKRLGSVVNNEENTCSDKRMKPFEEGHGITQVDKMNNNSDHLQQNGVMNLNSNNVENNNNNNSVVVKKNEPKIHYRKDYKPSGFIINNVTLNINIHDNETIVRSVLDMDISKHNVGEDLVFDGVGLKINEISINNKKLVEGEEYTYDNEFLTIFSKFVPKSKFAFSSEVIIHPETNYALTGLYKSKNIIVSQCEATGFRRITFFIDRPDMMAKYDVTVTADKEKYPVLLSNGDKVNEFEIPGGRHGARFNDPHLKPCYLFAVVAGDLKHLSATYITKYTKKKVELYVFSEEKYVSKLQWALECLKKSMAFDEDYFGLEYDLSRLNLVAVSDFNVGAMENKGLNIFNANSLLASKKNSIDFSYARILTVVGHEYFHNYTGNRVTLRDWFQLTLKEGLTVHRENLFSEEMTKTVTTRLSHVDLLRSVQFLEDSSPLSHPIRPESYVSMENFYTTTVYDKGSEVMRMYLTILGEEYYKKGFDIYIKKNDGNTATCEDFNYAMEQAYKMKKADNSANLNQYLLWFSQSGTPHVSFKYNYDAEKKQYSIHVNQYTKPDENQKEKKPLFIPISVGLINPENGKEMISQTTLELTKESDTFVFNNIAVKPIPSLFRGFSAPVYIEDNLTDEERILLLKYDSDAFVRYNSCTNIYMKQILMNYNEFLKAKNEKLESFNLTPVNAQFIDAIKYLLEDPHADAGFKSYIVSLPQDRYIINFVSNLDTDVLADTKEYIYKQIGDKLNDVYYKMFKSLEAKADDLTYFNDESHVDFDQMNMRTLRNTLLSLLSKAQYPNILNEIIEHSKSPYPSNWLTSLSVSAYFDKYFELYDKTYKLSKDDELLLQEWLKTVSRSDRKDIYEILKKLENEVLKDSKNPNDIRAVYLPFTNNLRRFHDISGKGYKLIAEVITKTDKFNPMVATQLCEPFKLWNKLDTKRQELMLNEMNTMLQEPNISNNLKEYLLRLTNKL

[1] = molecular target: Polyadenylate-binding protein 1 (Homo sapiens, UniProt P11940); assay: blockers of PABP interaction with poly(A) – biochemical, fluorescence polarization, […] (AID 2014)
Polyadenylate-binding protein 1, sequence (P11940 whole entry): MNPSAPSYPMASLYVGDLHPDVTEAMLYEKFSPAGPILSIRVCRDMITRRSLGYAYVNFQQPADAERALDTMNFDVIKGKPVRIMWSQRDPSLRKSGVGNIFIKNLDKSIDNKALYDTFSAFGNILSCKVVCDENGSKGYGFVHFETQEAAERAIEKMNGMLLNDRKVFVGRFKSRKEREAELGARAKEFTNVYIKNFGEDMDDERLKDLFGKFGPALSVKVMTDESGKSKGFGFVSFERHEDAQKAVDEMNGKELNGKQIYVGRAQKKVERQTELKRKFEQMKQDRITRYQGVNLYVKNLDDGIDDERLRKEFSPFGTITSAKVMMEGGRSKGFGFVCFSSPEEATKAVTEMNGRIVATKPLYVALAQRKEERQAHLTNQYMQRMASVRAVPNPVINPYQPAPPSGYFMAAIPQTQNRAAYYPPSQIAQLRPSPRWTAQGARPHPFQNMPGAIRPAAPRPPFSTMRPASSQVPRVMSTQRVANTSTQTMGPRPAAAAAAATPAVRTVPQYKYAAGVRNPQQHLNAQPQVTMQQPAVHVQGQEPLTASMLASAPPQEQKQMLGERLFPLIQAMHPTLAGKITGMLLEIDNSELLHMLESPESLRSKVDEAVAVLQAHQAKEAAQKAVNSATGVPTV

[2] = molecular target: Eukaryotic translation initiation factor 4H (Homo sapiens, UniProt Q15056); assay: eIF4H binding inhibition – biochemical, uHTS, fluorescence polarization, translation initiation inhibitor project, primary screen (AID 2012)
[3] = molecular target: T2, Alkaline phosphatase, tissue-nonspecific isozyme (Homo sapiens, UniProt P05186); assay: potency against alkaline phosphatase TNAP – biochemical, luminescent, dose response, SAR follow-up (AID 1056)
T2 sequence (P05186 whole entry): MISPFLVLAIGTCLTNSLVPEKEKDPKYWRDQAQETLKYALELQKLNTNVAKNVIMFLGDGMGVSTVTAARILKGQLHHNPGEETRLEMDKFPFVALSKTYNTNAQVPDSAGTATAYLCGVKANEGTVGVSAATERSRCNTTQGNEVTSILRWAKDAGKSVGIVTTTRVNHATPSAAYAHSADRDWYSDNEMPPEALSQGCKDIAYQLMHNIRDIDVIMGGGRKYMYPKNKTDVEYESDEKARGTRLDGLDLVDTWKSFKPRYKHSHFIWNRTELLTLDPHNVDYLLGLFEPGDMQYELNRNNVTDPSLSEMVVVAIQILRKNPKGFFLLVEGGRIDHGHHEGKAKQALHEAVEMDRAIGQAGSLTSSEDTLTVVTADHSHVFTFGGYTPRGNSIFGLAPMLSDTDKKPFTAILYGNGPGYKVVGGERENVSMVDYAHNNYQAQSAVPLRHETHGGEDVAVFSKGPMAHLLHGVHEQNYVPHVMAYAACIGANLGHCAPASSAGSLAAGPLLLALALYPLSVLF

[4] = molecular target: Glyceraldehyde-3-phosphate dehydrogenase (Homo sapiens, UniProt P04406)
Glyceraldehyde-3-phosphate dehydrogenase, sequence (P04406 whole entry): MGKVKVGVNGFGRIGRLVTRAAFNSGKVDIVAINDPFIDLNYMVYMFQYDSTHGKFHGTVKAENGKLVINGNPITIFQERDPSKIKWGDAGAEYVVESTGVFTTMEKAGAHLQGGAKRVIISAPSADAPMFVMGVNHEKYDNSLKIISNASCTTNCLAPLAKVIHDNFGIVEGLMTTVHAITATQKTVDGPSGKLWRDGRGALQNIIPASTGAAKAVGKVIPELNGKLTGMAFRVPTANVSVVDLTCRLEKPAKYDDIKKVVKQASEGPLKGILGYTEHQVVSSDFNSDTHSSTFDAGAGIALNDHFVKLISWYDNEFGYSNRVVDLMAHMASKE

[5] = molecular target: Alkaline phosphatase, placental type (Homo sapiens, UniProt P05187); assay: human placental alkaline phosphatase inhibition – biochemical, luminescence, confirmation (AID 1512); type: functional
Alkaline phosphatase, placental type, sequence (P05187 whole entry): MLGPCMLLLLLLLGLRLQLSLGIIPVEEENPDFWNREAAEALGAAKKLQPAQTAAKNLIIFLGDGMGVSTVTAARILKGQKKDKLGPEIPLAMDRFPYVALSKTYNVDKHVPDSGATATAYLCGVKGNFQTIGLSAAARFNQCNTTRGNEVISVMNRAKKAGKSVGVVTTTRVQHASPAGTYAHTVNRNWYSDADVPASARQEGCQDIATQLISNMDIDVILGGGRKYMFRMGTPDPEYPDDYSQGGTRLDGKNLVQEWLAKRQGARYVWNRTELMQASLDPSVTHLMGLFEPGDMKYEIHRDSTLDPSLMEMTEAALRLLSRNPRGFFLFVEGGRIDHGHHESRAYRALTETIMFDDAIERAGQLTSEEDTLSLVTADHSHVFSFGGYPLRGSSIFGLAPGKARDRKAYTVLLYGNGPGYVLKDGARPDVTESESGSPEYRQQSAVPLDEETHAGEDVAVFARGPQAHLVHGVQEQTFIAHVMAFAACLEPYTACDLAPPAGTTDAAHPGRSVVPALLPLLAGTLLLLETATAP

[6] = NIH3T3 cell viability loss – ATP luminescence, mouse fibroblasts, counter-screen, dose response (AID 2010); type: functional, cell-based;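 note: cells exposed to compound for about 90 hours before reading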
[7] = viability of uninfected HEp-2 cells – cell-based, HTS, cytotoxicity control for RSV inhibitor project, dose response (AID 2410); type: functional; conditions: human respiratory syncytial virus
[8] = Luminescence Cell-Based Dose Confirmation HTS to Identify Activators of 5'UTR Stem-Loop Driven Alpha-Synuclein mRNA Translation in H4 Neuroglioblastoma Cells. [Related pubchem assays: 1829 (Project Summary), 1814 (Primary HTS)]; type: functional
H4 = assay: Luminescence Cell-Based Dose Response HTS to Identify Activators of 5'UTR Stem-Loop Driven Prion Protein mRNA Translation in H4 Neuroglioblastoma Cells. [Related pubchem assays: 1829 (Project Summary), 1814 (Primary HTS)]; type: functional; conditions: Homo sapiens
[9] = Trypanosoma cruzi growth suppression in host cells – NIH3T3 host cells, beta-gal luminescence, confirmation (AID 2044); type: functional, cell-based;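 note: intracellular parasites grown in NIH/3T3 mouse fibroblasts as host cells; luminescent beta-galactosidase reporter signal from transgenic T. cruzi replicating inside host cells; inhibitors lower the luminescence signal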
[10] = Luminescence Cell-Based Dose Response HTS to Identify Activators of Luciferase Translation or Activity in H4 […] Cells. [Related pubchem assays: 1829 (Project Summary), 1814 (Primary HTS)]; type: functional
Genome polyprotein = Genome polyprotein (dengue virus type 2, UniProt P29990); assay: flavivirus cap methylation enzyme inhibition – biochemical, confirmation dose response, primary screen (AID 588689); type: functional
Genome polyprotein, sequence (P29990 2492-3391 limits assumed): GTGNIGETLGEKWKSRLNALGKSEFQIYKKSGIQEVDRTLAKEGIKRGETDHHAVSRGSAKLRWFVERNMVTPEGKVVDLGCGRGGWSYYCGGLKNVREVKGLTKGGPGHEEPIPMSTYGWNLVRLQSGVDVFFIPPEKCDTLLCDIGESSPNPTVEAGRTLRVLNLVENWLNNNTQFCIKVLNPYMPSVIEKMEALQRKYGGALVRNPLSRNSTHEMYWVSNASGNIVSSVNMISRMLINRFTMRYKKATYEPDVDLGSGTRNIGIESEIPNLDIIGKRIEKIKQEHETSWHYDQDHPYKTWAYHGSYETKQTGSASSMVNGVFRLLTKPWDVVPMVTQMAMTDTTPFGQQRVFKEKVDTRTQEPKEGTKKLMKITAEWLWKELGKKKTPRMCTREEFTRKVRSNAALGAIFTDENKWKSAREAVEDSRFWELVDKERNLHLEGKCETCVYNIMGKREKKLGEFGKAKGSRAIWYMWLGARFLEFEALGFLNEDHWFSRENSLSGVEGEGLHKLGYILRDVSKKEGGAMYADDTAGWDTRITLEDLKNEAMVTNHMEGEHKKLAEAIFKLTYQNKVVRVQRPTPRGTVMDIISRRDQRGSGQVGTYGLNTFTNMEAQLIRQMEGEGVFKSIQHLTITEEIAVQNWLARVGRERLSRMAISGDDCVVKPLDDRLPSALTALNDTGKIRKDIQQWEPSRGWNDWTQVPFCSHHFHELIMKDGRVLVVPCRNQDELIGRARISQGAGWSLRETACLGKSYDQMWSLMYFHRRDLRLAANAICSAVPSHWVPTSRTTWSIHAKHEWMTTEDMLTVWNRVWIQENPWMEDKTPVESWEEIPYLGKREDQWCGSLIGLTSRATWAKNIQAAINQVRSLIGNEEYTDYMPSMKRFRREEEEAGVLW

[11] = molecular target: DNA dC->dU-editing enzyme APOBEC-3A (Homo sapiens, UniProt P31941); assay: Dose Response confirmation of small molecule APOBEC3A DNA Deaminase Inhibitors via a fluorescence-based single-stranded DNA deaminase assay. [Related pubchem assays (depositor defined):AID493011, AID493024]; type: functional
DNA dC->dU-editing enzyme APOBEC-3A, sequence (P31941 whole entry): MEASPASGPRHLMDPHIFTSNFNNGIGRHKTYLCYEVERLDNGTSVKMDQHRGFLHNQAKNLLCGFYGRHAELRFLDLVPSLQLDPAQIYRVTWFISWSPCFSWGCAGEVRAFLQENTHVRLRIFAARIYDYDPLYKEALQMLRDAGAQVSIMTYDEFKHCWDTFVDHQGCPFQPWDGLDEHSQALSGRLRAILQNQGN

[12] = molecular target: DNA dC->dU-editing enzyme APOBEC-3G (Homo sapiens, UniProt Q9HC16); type: functional;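 note: Dose-response counterscreen measuring inhibition of APOBEC3G DNA deaminase activity, run while confirming APOBEC3A inhibitors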
DNA dC->dU-editing enzyme APOBEC-3G, sequence (Q9HC16 whole entry): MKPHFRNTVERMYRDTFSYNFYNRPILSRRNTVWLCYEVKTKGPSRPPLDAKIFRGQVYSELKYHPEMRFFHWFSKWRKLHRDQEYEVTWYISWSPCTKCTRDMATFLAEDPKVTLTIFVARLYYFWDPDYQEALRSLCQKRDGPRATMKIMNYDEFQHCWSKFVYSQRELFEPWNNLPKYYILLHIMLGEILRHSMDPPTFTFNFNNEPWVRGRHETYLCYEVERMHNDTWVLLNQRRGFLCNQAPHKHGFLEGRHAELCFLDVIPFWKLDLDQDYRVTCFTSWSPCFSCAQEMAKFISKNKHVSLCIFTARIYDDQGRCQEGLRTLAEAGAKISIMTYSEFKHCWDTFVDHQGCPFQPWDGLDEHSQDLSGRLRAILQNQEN

[13] = molecular target: T3, Short transient receptor potential channel 4 (Mus musculus, UniProt Q9QUQ5); assay: block of DAMGO-driven TRPC4 calcium entry – cell-based, HEK293 TRPC4/mu-opioid, Fluo-4 calcium, dose response (AID 434942); type: functional;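 note: potency of inhibitors blocking the TRPC4 calcium response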
T3 sequence (Q9QUQ5 whole entry): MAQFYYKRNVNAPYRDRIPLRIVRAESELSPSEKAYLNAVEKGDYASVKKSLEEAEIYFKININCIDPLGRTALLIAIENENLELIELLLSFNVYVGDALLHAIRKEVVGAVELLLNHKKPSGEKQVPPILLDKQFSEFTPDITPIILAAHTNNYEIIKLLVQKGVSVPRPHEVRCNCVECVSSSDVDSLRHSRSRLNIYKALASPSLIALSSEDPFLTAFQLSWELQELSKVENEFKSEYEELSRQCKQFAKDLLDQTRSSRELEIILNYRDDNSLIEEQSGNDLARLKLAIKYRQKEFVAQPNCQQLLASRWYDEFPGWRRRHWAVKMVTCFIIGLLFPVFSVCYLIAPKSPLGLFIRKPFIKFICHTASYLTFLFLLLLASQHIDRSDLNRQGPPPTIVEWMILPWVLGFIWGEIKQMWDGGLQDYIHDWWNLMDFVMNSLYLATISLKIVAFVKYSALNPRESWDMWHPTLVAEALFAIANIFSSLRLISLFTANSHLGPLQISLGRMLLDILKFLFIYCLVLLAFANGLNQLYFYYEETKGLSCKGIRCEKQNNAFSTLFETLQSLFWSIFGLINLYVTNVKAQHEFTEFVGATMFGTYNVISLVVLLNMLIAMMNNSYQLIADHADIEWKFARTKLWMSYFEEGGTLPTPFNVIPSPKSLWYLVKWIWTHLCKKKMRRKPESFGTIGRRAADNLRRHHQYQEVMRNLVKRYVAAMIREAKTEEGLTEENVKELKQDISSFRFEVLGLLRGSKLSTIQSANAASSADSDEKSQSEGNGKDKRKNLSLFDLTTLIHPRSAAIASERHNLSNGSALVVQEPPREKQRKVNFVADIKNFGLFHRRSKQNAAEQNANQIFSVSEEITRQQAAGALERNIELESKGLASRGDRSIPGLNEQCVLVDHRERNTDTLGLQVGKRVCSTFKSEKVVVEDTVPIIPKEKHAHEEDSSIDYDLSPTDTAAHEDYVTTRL

X-box-binding protein 1 = molecular target: T4, X-box-binding protein 1 (Homo sapiens, UniProt P17861); type: functional, Cricetulus griseus;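 note: confirmatory dose-response counter-screen serving a CHOP assay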
T4 sequence (P17861 whole entry): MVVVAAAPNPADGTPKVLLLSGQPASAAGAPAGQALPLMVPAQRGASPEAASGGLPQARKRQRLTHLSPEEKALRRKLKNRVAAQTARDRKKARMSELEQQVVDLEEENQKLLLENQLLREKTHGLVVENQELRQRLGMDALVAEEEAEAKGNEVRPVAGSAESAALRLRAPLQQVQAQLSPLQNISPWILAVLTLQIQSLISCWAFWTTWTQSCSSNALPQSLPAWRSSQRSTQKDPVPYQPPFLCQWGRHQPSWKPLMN

[14] = A Cell Based Secondary Assay To Explore Cytotoxicity of Compounds that Sensitize Mycobacterium Tuberculosis to Beta-Lactam Antibiotics.; type: functional
[15] = fluconazole-exposed Candida albicans growth modulators – fluorescence, retest, confirmation (AID 2467); type: functional, cell-based
[16] = NIH-3T3 fibroblast cytotoxicity, dose response, cytotoxicity control, cell-based, fluorescence, Alamar Blue, secondary assay (AID 2327); type: functional;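 note: NIH-3T3 mouse fibroblasts cultured with fluconazole at 8 µg/mL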

## Cc1ccc(C(=O)NCC(=O)OCC(=O)NC(C)c2ccccc2)s1 (stereo not drawn)
Aminopeptidase N
  IC50: 39.6 µM (active)

## CC1=CC(C)C(CN(CCC[N+](C)(C)C)C(=O)Nc2ccccc2)C(C)C1 (stereo not drawn)
[1]
  IC50: 4.08 µM (active)
[2]
  IC50: > 100 µM (inactive)

## Cc1[nH]c2ccccc2c1/C=C1\SC(=S)N(c2cccc(C(=O)O)c2)C1=O
Aminopeptidase N
  IC50: 55.9 µM (active)

## COc1ccc(-c2nc3c4cnn(C)c4ncn3n2)cc1
[3]
  IC50: > 100 µM (inactive)
[4]
  IC50: > 100 µM (not active)
[5]
  IC50: > 100 µM (inactive)

## O=C(NC(=S)Nc1ccccc1C(=O)O)c1ccc(-c2ccc(Br)cc2)o1
[6]
  EC50: > 60 µM (not active)
[7]
  CC50: 19 µM (active)
[8]
  EC50: 71.2 µM (active)
H4
  EC50: 22.1 µM (active)
cells
  IC50: 6.21 µM (active)
[9]
  EC50: 2.13 µM (active)
[10]
  EC50: 12.5 µM (active)
Genome polyprotein
  IC50: 42.2 µM (active)

## COC(=O)CCCCCCCCC(O)C[N+]1(C)CCOCC1 (stereo not drawn)
[11]
  IC50: 2.36 µM (active)
[12]
  IC50: 3.49 µM (active)
[1]
  IC50: 2.48 µM (active)
[2]
  IC50: > 100 µM (inactive)

## CC1(C)CC2CC(C)(CN2CC(O)COc2ccccc2)C1 (stereo not drawn)
[13]
  EC50: 1.88 µM (active)

## Cn1c(=O)cc(SCC(=O)NCCC2=CCCCC2)c2ccc(Cl)cc21
X-box-binding protein 1
  Absolute IC50 (XBP1): 10 µM

## CCCCCCCCCCSc1nnc(NC(C)=O)[nH]1
[5]
  IC50: > 100 µM (inactive)

## C[C@H]1C=CC(=O)O[C@H]1c1ccccc1
[14]
  CC50: 22.9 µM (active)

## CCn1c(SCC(=O)NCc2ccccc2)nnc1C(CO)NC(=O)c1ccccc1 (stereo not drawn)
[11]
  IC50: 3.67 µM (active)
[12]
  IC50: 4.48 µM (active)
[1]
  IC50: 6.06 µM (active)
[2]
  IC50: > 100 µM (inactive)

## NNC(=O)Cn1c(-c2nonc2N)nc2ccccc21
Aminopeptidase N
  IC50: 58.2 µM (active)

## COC(=O)c1c(C)n(-c2ccccc2)c2ccc(O)cc12
[15]
  EC50: > 38 µM (not active)
[16]
  EC50: 2.59 µM (inconclusive)
[14]
  CC50: > 40 µM (active)

## O=C(c1ccc2c(c1)OCO2)C1CCCN(Cc2ccccc2OC(F)F)C1 (stereo not drawn)
[13]
  EC50: 2.99 µM (active)

## CCOC(=O)N1CCC(n2c(=S)[nH]c3cc(OCC)c(OCC)cc3c2=O)CC1
X-box-binding protein 1
  Absolute IC50 (XBP1): 10 µM

## CCCCCC(=O)Nc1cccc(C2=NOC3(C2)C[C@@H](C(N)=O)N(C(=O)CC(c2ccccc2)c2ccccc2)C3)c1 (stereo partly drawn)
[6]
  EC50: > 60 µM (not active)
[14]
  CC50: > 40 µM (active)
[9]
  EC50: 0.396 µM (active)

## COCCCNc1cc(C)nc2ccccc12
[13]
  EC50: 3.76 µM (active)

## COc1ccc(/C=N/Nc2nc(-c3ccc(C)cc3)c(NC(C)=O)s2)cc1
[14]
  CC50: > 40 µM (active)

## CC[N+](C)(CC)CCC/C(=N/O)C(O)(c1ccccc1)c1ccccc1
[1]
  IC50: 5.57 µM (active)
[2]
  IC50: > 100 µM (inactive)

## O=C(c1cc(-c2ccc(Cl)cc2Cl)n[nH]1)N1CCN(CCO)CC1
[4]
  IC50: > 100 µM (not active)
[5]
  IC50: > 100 µM (inactive)

## CC(=O)OC[C@]12CCC(C)=C[C@H]1O[C@@H]1[C@H](O)[C@@H](OC(C)=O)[C@@]2(C)[C@]12CO2 [ANGUIDIN]
X-box-binding protein 1
  Absolute IC50 (XBP1): 0.16 µM
